Reference: patent US9302999B2, “Substituted triazoles as herbicides” (E. I. DU PONT DE NEMOURS AND COMPANY, priority 2012, dated 2016)
Where two headings read alike, the source gives them in different places.

How the values were obtained:
Type in all cases: in vivo
[1] = tested on: ryegrass, Italian (Italian ryegrass, Lolium multiflorum); test: Test C pre-/postemergence: ryegrass, Italian
Method in brief: (§1)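 Visual injury scored 0–100 (100 = complete control) against untreated controls after 13–15 greenhouse days. Surfactant-containing solvent formulations applied either to soil after sowing (loam/sand) or over 1- to 4-leaf plants, 2–18 cm tall.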

[2] = tested on: velvetleaf (Abutilon theophrasti); test: Test A pre-/postemergence: velvetleaf; details: for Velvetleaf plant response rating: 1000 g ai/ha; for pest or weed control at 125 g/ha / pest or weed control at 500 g/ha: Abutilon theophrasti, 240 h; for pest or weed control at 125 g/ha: 125 g ai/ha; for pest or weed control at 500 g/ha: 500 g ai/ha
Method in brief: (§2)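 Pre: directed soil spray after planting in loam + sand. Post: same formulation (non-phytotoxic solvent + surfactant) on 1–2-leaf plants, 2–10 cm. Greenhouse ~10 d; visual injury 0–100 vs untreated.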

[3] = tested on: blackgrass (Alopecurus myosuroides); test: Test C pre-/postemergence: blackgrass
Method in brief: as §1

[4] = tested on: wild oat (Avena fatua); test: Test C pre-/postemergence: wild oat
Method in brief: as §1

[5] = tested on: foxtail, giant (giant foxtail, Setaria faberii); test: Test A pre-/postemergence: foxtail, giant; details: for Foxtail, Giant plant response rating: 1000 g ai/ha; for pest or weed control at 125 g/ha / pest or weed control at 500 g/ha: Setaria faberi, 240 h; for pest or weed control at 125 g/ha: 125 g ai/ha; for pest or weed control at 500 g/ha: 500 g ai/ha
Method in brief: as §2

[6] = tested on: wheat (Triticum aestivum); test: Test A pre-/postemergence: wheat; details: for Wheat plant response rating: 1000 g ai/ha; for plant injury at 125 g/ha / plant injury at 500 g/ha: Triticum aestivum, 240 h; for plant injury at 125 g/ha: 125 g ai/ha; for plant injury at 500 g/ha: 500 g ai/ha
Method in brief: as §2

[7] = tested on: kochia (Kochia scoparia); test: Test C pre-/postemergence: kochia
Method in brief: as §1

[8] = tested on: pigweed (Amaranthus retroflexus); test: Test C pre-/postemergence: pigweed
Method in brief: as §1

[9] = tested on: large crabgrass (Digitaria sanguinalis); test: Test C pre-/postemergence: large crabgrass
Method in brief: as §1

[10] = tested on: barnyardgrass (Echinochloa crus-galli); test: Test A pre-/postemergence: barnyardgrass; details: for Barnyardgrass plant response rating: 1000 g ai/ha; for pest or weed control at 125 g/ha / pest or weed control at 500 g/ha: Echinochloa crus-galli, 240 h; for pest or weed control at 125 g/ha: 125 g ai/ha; for pest or weed control at 500 g/ha: 500 g ai/ha
Method in brief: as §2

[11] = tested on: morningglory (Ipomoea spp.); test: Test A pre-/postemergence: morningglory; details: for Morningglory plant response rating: 1000 g ai/ha; for pest or weed control at 125 g/ha / pest or weed control at 500 g/ha: Ipomoea, 240 h; for pest or weed control at 125 g/ha: 125 g ai/ha; for pest or weed control at 500 g/ha: 500 g ai/ha
Method in brief: as §2

[12] = tested on: lambsquarters (Chenopodium album); test: Test C pre-/postemergence: lambsquarters
Method in brief: as §1

[13] = Postemergence, 16 g ai/ha, scale 0 to 100, 0 no effect, 100 complete control
[14] = Postemergence, 31 g ai/ha, scale 0 to 100 (0 no effect, 100 complete control)
[15] = Postemergence, 62 g ai/ha, scale 0 to 100 (0 no effect, 100 complete control)
[16] = Postemergence, 125 g ai/ha, scale 0 to 100, 0 no effect, 100 complete control
[17] = Postemergence, visual rating on 0 to 100 scale (0 no effect, 100 complete control), approximately ten days
[18] = Preemergence, 0 to 100 scale, 0 is no effect, 100 is complete control
[19] = Postemergence, 250 g ai/ha, scale 0 to 100
[20] = Preemergence, 31 g ai/ha, scale of 0 to 100, 0 is no effect, 100 is complete control
[21] = Preemergence, 62 g ai/ha, scale of 0 to 100, 0 is no effect, 100 is complete control
[22] = Preemergence, 125 g ai/ha, scale 0 to 100, 0 no effect, 100 complete control
[23] = Preemergence, 250 g ai/ha, scale 0 to 100, 0 no effect, 100 complete control

## Cc1nn(-c2ccc(C(F)(F)F)cc2)nc1Cc1cccc(C(F)(F)F)c1 [Compound 124]
[1]; [13]
  Plant response rating, Ryegrass, Italian: 5
[1]; [14]
  Plant response rating, Ryegrass, Italian: 15
[1]; [15]
  Plant response rating, Ryegrass, Italian: 35
[1]; [16]
  Plant response rating, Ryegrass, Italian: 65
[2]; [17]
  Velvetleaf plant response rating: 100
[2]; [18]
  Velvetleaf plant response rating: 80
[3]; [13]
  Plant response rating, Blackgrass: 0
[3]; [14]
  Plant response rating, Blackgrass: 35
[3]; [15]
  Plant response rating, Blackgrass: 50
[3]; [16]
  Plant response rating, Blackgrass: 85
[4]; [13]
  Plant response rating, Oat, Wild: 20
[4]; [14]
  Plant response rating, Oat, Wild: 20
[4]; [15]
  Plant response rating, Oat, Wild: 25
[4]; [16]
  Plant response rating, Oat, Wild: 35
[5]; [17]
  Foxtail, Giant plant response rating: 90
[5]; [18]
  Foxtail, Giant plant response rating: 100
[6]; [17]
  Wheat plant response rating: 40
[6]; [18]
  Wheat plant response rating: 0
[7]; [13]
  Plant response rating, Kochia: 75
[7]; [14]
  Plant response rating, Kochia: 80
[7]; [15]
  Plant response rating, Kochia: 80
[7]; [16]
  Plant response rating, Kochia: 85
[8]; [13]
  Plant response rating, Pigweed: 75
[8]; [14]
  Plant response rating, Pigweed: 90
[8]; [15]
  Plant response rating, Pigweed: 95
[8]; [16]
  Plant response rating, Pigweed: 98
[9]; [13]
  Plant response rating, Crabgrass, Large: 20
[9]; [14]
  Plant response rating, Crabgrass, Large: 30
[9]; [15]
  Plant response rating, Crabgrass, Large: 40
[9]; [16]
  Plant response rating, Crabgrass, Large: 45
[10]; [17]
  Barnyardgrass plant response rating: 70
[10]; [18]
  Barnyardgrass plant response rating: 90
[11]; [17]
  Morningglory plant response rating: 100
[11]; [18]
  Morningglory plant response rating: 40
[12]; [13]
  Plant response rating, Lambsquarters: 85
[12]; [14]
  Plant response rating, Lambsquarters: 95
[12]; [15]
  Plant response rating, Lambsquarters: 98
[12]; [16]
  Plant response rating, Lambsquarters: 98

## Cc1nn(-c2ccc(F)cc2)nc1Oc1ccnc(C(F)(F)F)c1 [Compound 129, 4-[[2-(4-fluorophenyl)-5-methyl-2H-1,2,3-triazol-4-yl]oxy]-2-(trifluoromethyl)pyridine]
[1]; [14]
  Plant response rating, Ryegrass, Italian: 5
[1]; [15]
  Plant response rating, Ryegrass, Italian: 15
[1]; [16]
  Plant response rating, Ryegrass, Italian: 30
[1]; [19]
  Plant response rating, Ryegrass, Italian: 60
[1]; [20]
  Plant response rating, Ryegrass, Italian: 60
[1]; [21]
  Plant response rating, Ryegrass, Italian: 90
[1]; [22]
  Plant response rating, Ryegrass, Italian: 90
[1]; [23]
  Plant response rating, Ryegrass, Italian: 95
[2]; post-emergence, Postemergence, 0 to 100 scale, 0 is no effect, 100 is complete control, read-out: Velvetleaf plant response rating
  pest or weed control at 125 g/ha: 70%
[2]; post-emergence, Postemergence, visual rating on 0 to 100 scale (0 no effect, 100 complete control), approximately ten days, read-out: Velvetleaf plant response rating
  pest or weed control at 500 g/ha: 100%
[2]; pre-emergence, Preemergence, 0 to 100 scale where 0 is no effect and 100 is complete control, read-out: Plant response rating, Velvetleaf
  pest or weed control at 125 g/ha: 60%
[2]; pre-emergence, Preemergence, 0 to 100 scale (0 no effect, 100 complete control), read-out: Plant response rating, Velvetleaf
  pest or weed control at 500 g/ha: 70%
[3]; [14]
  Plant response rating, Blackgrass: 40
[3]; [15]
  Plant response rating, Blackgrass: 60
[3]; [16]
  Plant response rating, Blackgrass: 70
[3]; [19]
  Plant response rating, Blackgrass: 80
[3]; [20]
  Plant response rating, Blackgrass: 90
[3]; Preemergence, 62 g ai/ha, scale 0 to 100, 0 no effect, 100 complete control
  Plant response rating, Blackgrass: 90
[3]; [22]
  Plant response rating, Blackgrass: 90
[3]; [23]
  Plant response rating, Blackgrass: 90
[4]; [14]
  Plant response rating, Oat, Wild: 20
[4]; [15]
  Plant response rating, Oat, Wild: 35
[4]; [16]
  Plant response rating, Oat, Wild: 50
[4]; [19]
  Plant response rating, Oat, Wild: 80
[4]; [20]
  Plant response rating, Oat, Wild: 40
[4]; [21]
  Plant response rating, Oat, Wild: 85
[4]; [22]
  Plant response rating, Oat, Wild: 95
[4]; [23]
  Plant response rating, Oat, Wild: 95
[5]; post-emergence, Postemergence, 0 to 100 scale, 0 is no effect, 100 is complete control, read-out: Foxtail, Giant plant response rating
  pest or weed control at 125 g/ha: 90%
[5]; post-emergence, Postemergence, visual rating on 0 to 100 scale (0 no effect, 100 complete control), approximately ten days, read-out: Foxtail, Giant plant response rating
  pest or weed control at 500 g/ha: 90%
[5]; pre-emergence, Preemergence, 0 to 100 scale where 0 is no effect and 100 is complete control, read-out: Plant response rating, Foxtail, Giant
  pest or weed control at 125 g/ha: 100%
[5]; pre-emergence, Preemergence, 0 to 100 scale (0 no effect, 100 complete control), read-out: Plant response rating, Foxtail, Giant
  pest or weed control at 500 g/ha: 100%
[6]; post-emergence, Postemergence, 0 to 100 scale, 0 is no effect, 100 is complete control, read-out: Wheat plant response rating
  plant injury at 125 g/ha: 20%
[6]; post-emergence, Postemergence, visual rating on 0 to 100 scale (0 no effect, 100 complete control), approximately ten days, read-out: Wheat plant response rating
  plant injury at 500 g/ha: 30%
[6]; pre-emergence, Preemergence, 0 to 100 scale where 0 is no effect and 100 is complete control, read-out: Plant response rating, Wheat
  plant injury at 125 g/ha: 10%
[6]; pre-emergence, Preemergence, 0 to 100 scale (0 no effect, 100 complete control), read-out: Plant response rating, Wheat
  plant injury at 500 g/ha: 50%
[7]; [14]
  Plant response rating, Kochia: 95
[7]; [15]
  Plant response rating, Kochia: 95
[7]; [16]
  Plant response rating, Kochia: 98
[7]; [19]
  Plant response rating, Kochia: 98
[7]; [20]
  Plant response rating, Kochia: 5
[7]; [21]
  Plant response rating, Kochia: 90
[7]; [22]
  Plant response rating, Kochia: 90
[7]; [23]
  Plant response rating, Kochia: 95
[8]; [14]
  Plant response rating, Pigweed: 85
[8]; [15]
  Plant response rating, Pigweed: 98
[8]; [16]
  Plant response rating, Pigweed: 98
[8]; [19]
  Plant response rating, Pigweed: 100
[8]; [20]
  Plant response rating, Pigweed: 100
[8]; [21]
  Plant response rating, Pigweed: 100
[8]; [22]
  Plant response rating, Pigweed: 100
[8]; [23]
  Plant response rating, Pigweed: 100
[9]; [14]
  Plant response rating, Crabgrass, Large: 20
[9]; [15]
  Plant response rating, Crabgrass, Large: 45
[9]; [16]
  Plant response rating, Crabgrass, Large: 65
[9]; [19]
  Plant response rating, Crabgrass, Large: 85
[9]; [20]
  Plant response rating, Crabgrass, Large: 98
[9]; [21]
  Plant response rating, Crabgrass, Large: 100
[9]; [22]
  Plant response rating, Crabgrass, Large: 100
[9]; [23]
  Plant response rating, Crabgrass, Large: 100
[10]; post-emergence, Postemergence, 0 to 100 scale, 0 is no effect, 100 is complete control, read-out: Barnyardgrass plant response rating
  pest or weed control at 125 g/ha: 90%
[10]; post-emergence, Postemergence, visual rating on 0 to 100 scale (0 no effect, 100 complete control), approximately ten days, read-out: Barnyardgrass plant response rating
  pest or weed control at 500 g/ha: 90%
[10]; pre-emergence, Preemergence, 0 to 100 scale where 0 is no effect and 100 is complete control, read-out: Plant response rating, Barnyardgrass
  pest or weed control at 125 g/ha: 100%
[10]; pre-emergence, Preemergence, 0 to 100 scale (0 no effect, 100 complete control), read-out: Plant response rating, Barnyardgrass
  pest or weed control at 500 g/ha: 100%
[11]; post-emergence, Postemergence, 0 to 100 scale, 0 is no effect, 100 is complete control, read-out: Morningglory plant response rating
  pest or weed control at 125 g/ha: 100%
[11]; post-emergence, Postemergence, visual rating on 0 to 100 scale (0 no effect, 100 complete control), approximately ten days, read-out: Morningglory plant response rating
  pest or weed control at 500 g/ha: 100%
[11]; pre-emergence, Preemergence, 0 to 100 scale where 0 is no effect and 100 is complete control, read-out: Plant response rating, Morningglory
  pest or weed control at 125 g/ha: 50%
[11]; pre-emergence, Preemergence, 0 to 100 scale (0 no effect, 100 complete control), read-out: Plant response rating, Morningglory
  pest or weed control at 500 g/ha: 60%
[12]; [14]
  Plant response rating, Lambsquarters: 98
[12]; [15]
  Plant response rating, Lambsquarters: 98
[12]; [16]
  Plant response rating, Lambsquarters: 98
[12]; [19]
  Plant response rating, Lambsquarters: 100
[12]; [20]
  Plant response rating, Lambsquarters: 95
[12]; [21]
  Plant response rating, Lambsquarters: 95
[12]; [22]
  Plant response rating, Lambsquarters: 98
[12]; [23]
  Plant response rating, Lambsquarters: 100
